“Also recorded” adds a separate entry of the source. No end group written: not given here. *: point of attachment. Octanoyl = CCCCCCCC(=O)*
Tests used:
[1] = tested on: GH deficient subjects; assay: Serum glucose concentrations after i.v. AG, UAG, AG+GH or AG+UAG, before and after a standard lunch; assay type: in vivo, human; settings: for effect on serum glucose levels after a standard lunch: GH deficient subjects; for effect on serum glucose levels: first two hours after i.v. administration, before lunch, fasting
Excerpt: (§1) Eight male subjects with a pituitary insufficiency but otherwise healthy, were asked to participate (range 21-69 yrs (age 55±10; mean±standard error of mean or SEM)) and a body mass index of 29.4±2.8 (mean±SEM). […] All subjects were admitted at the Clinical Research Unit. No alcoholic beverages were allowed from the day prior to admission until the end of the study. Also, all subjects were asked to skip the administration of their GH replacement every night prior to each of the 5 admission days. All subjects gave their written informed consent to participate in the study, which had been approved the hospital's Ethical Committee.
(§2) All subjects underwent the following five testing sessions, each after an overnight fast, in random order and at least 1 week apart: 1) placebo (saline 3 ml iv). 2) acylated ghrelin (Neosystem S.A.; Strasbourg, France; 1.0 μg/kg iv, using a bacterial filter system). 3) unacylated ghrelin (Neosystem S.A.; Strasbourg, France; 1.0 μg/kg iv, using a filter system). 4) acylated ghrelin (1.0 μg/kg iv) but this time after the normal GH replacement dose was administered 15 minutes before. 5) acylated ghrelin in combination with unacylated ghrelin (both 1.0 μg/kg iv, but via separate injection sites). All tests started in the morning at 09:30 am, 30′ after one or two indwelling catheters had been placed into an antecubital vein, kept patent by slow infusion of isotonic saline.
(§3) This meal was taken by all subjects all tests days.
(§4) Insulin was assessed with a radioimmunoassay (Medgenix Diagnostics, Brussels, Belgium; intra- and interassay coefficient of variation (CV) 13.7 and 8.0% respectively). Glucose was assessed with an automatic hexokinase method (Roche, Almere, The Netherlands). Free fatty acids were determined with an enzymatic […] method (Wako Chemicals GmbH, Neuss, Germany; intra- and interassay CV 1.1 and 4.1% respectively).
(§5) Differences between the several study days were calculated, using a Newman-Keuls Multiple Comparison one-way ANOVA test (GraphPad Prism 4 for Windows; GraphPad Inc. USA). P-values <0.05 were considered significant. Areas under the curve were calculated using the trapezoid rule.

[2] = Serum total and acylated ghrelin concentrations after i.v. bolus injection (radioimmunoassay); parameters: species or system human; settings: in vivo, iv
Excerpt: as §1
All subjects underwent the following five testing sessions, each after an overnight fast, in random order and at least 1 week apart: 1) placebo (saline 3 ml iv). 2) acylated ghrelin (Neosystem S.A.; Strasbourg, France; 1.0 μg/kg iv, using a bacterial filter system). […]
Acylated and total ghrelin concentrations were measured, using a commercially available radioimmunoassay (Linco research Inc. Missouri, USA). […] The lowest level of ghrelin that can be detected by this assay is […] when using a 100 μl sample size. […]
(§6) Differences between the several study days were calculated, using a Newman-Keuls Multiple Comparison one-way ANOVA test (GraphPad Prism 4 for Windows; GraphPad Inc. USA). […] Areas under the curve were calculated using the trapezoid rule.

[3] = tested on: GH deficient subjects; assay: Insulin sensitivity judged from areas under the curve of glucose, insulin and FFA (FIG. 8, FIG. 9); assay type: in vivo, human
Excerpt: Eight male subjects with a pituitary insufficiency but otherwise healthy, were asked to participate (range 21-69 yrs (age 55±10; mean±standard error of mean or SEM)) and a body mass index of 29.4±2.8 (mean±SEM). […] All subjects were admitted at the Clinical Research Unit. No alcoholic beverages were allowed from the day prior to admission until the end of the study. Also, all subjects were asked to skip the administration of their GH replacement every night prior to each of the 5 admission days. All subjects gave their written informed consent to participate in the study, which had been approved the hospital's Ethical Committee. […] Insulin was assessed with a radioimmunoassay (Medgenix Diagnostics, Brussels, Belgium; intra- and interassay coefficient of variation (CV) 13.7 and 8.0% respectively). Glucose was assessed with an automatic hexokinase method (Roche, Almere, The Netherlands). Free fatty acids were determined with an enzymatic […] method (Wako Chemicals GmbH, Neuss, Germany; intra- and interassay CV 1.1 and 4.1% respectively). Differences between the several study days were calculated, using a Newman-Keuls Multiple Comparison one-way ANOVA test (GraphPad Prism 4 for Windows; GraphPad Inc. USA). […] Areas under the curve were calculated using the trapezoid rule.

[4] = tested on: GH deficient subjects; assay: Serum free fatty acid concentrations after i.v. AG, UAG, AG+GH or AG+UAG, before and after a standard lunch; assay type: in vivo, human; settings: compounds administered 2-6 hrs before
Excerpt: as §1, with “Committee. […]” for “Committee.”
as §4, §6

[5] = tested on: GH deficient subjects; assay: Serum insulin concentrations after i.v. AG, UAG, AG+GH or AG+UAG, before and after a standard lunch; assay type: in vivo, human; settings: for effect on serum insulin levels after a standard lunch: GH deficient subjects; for effect on serum insulin levels: first two hours after i.v. administration, before lunch, fasting
Excerpt: as §1, §2, §3, §4, §5

[6] = tested on: GH secretion; settings: compared with Ghrelin-28; cited from earlier work
[7] = tested on: cloned cells; settings: cited from earlier work

| Molecule | effect on serum glucose levels after a standard lunch [1] | effect on serum glucose levels [1] | effect on serum glucose levels ([1]; listed as acylated ghrelin) | effect on unacylated ghrelin levels [2] | duration of decrease in insulin sensitivity after administration ([3]; after administration of acylated ghrelin) | effect on insulin sensitivity ([3]; period following lunch, AUC (FIG. 9)) | effect on serum FFA levels after a standard lunch [4] | effect on serum insulin levels after a standard lunch [5] | effect on serum insulin levels [5] | effect on serum glucose levels ([1]; listed as unacylated ghrelin) | induction of GH secretion [6] | Ca2+ fluxes [7] |
| --- | --- | --- | --- | --- | --- | --- | --- | --- | --- | --- | --- | --- |
| CCCCCCCC(=O)OC[C@H](NC(=O)[C@H](CO)NC(=O)CN)C(=O)N[C@@H](Cc1ccccc1)C(=O)N[C@@H](CC(C)C)C(=O)N[C@@H](CO)C(=O)N1CCC[C@H]1C(=O)N[C@@H](CCC(=O)O)C(=O)N[C@@H](Cc1cnc[nH]1)C(=O)N[C@@H](CCC(N)=O)C(=O)N[C@@H](CCCNC(=N)N)C(=O)N[C@H](C(=O)N[C@@H](CCC(N)=O)C(=O)N[C@@H](CCC(N)=O)C(=O)N[C@@H](CCCNC(=N)N)C(=O)N[C@@H](CCCCN)C(=O)N[C@@H](CCC(=O)O)C(=O)N[C@@H](CO)C(=O)N[C@@H](CCCCN)C(=O)N[C@@H](CCCCN)C(=O)N1CCC[C@H]1C(=O)N1CCC[C@H]1C(=O)N[C@@H](C)C(=O)N[C@@H](CCCCN)C(=O)N[C@@H](CC(C)C)C(=O)N[C@@H](CCC(N)=O)C(=O)N1CCC[C@H]1C(=O)N[C@@H](CCCNC(=N)N)C(=O)O)C(C)C [AG] | increase serum glucose levels significantly | induces a significant hyperglycemia | immediately increases glucose and insulin levels | induces an acute increase in unacylated ghrelin levels | at least 6 hours | decreases insulin sensitivity, compared to placebo | significantly increased FFA levels after lunch, compared to placebo | increased insulin levels the most | immediately increases glucose and insulin levels | – | – | – |
| CC(C)C[C@H](NC(=O)[C@H](CCCCN)NC(=O)[C@H](C)NC(=O)[C@@H]1CCCN1C(=O)[C@@H]1CCCN1C(=O)[C@H](CCCCN)NC(=O)[C@H](CCCCN)NC(=O)[C@H](CO)NC(=O)[C@H](CCC(=O)O)NC(=O)[C@H](CCCCN)NC(=O)[C@H](CCCNC(=N)N)NC(=O)[C@H](CCC(N)=O)NC(=O)[C@H](CCC(N)=O)NC(=O)[C@@H](NC(=O)[C@H](CCCNC(=N)N)NC(=O)[C@H](CCC(N)=O)NC(=O)[C@H](Cc1c[nH]cn1)NC(=O)[C@H](CCC(=O)O)NC(=O)[C@@H]1CCCN1C(=O)[C@H](CO)NC(=O)[C@H](CC(C)C)NC(=O)[C@H](Cc1ccccc1)NC(=O)[C@H](CO)NC(=O)[C@H](CO)NC(=O)CN)C(C)C)C(=O)N[C@@H](CCC(N)=O)C(=O)N1CCC[C@H]1C(=O)N[C@@H](CCCNC(=N)N)C(=O)O [UAG] | increase serum glucose levels significantly; also recorded: increases serum glucose levels significantly more than AG | to a lesser extent, UAG, induces a significant hyperglycemia | – | – | – | – | could not be observed | increased insulin levels the most, followed UAG | This does not occur | This does not occur | – | – |
| Gly-Ser-[octanoyl]Ser-Phe-Leu-Ser-Pro-Glu-His-Gln-Arg-Val-Gln-Arg-Lys-Glu-Ser-Lys-Lys-Pro-Pro-Ala-Lys-Leu-Gln-Pro-Arg (GSS(Octanoyl)FLSPEHQRVQRKESKKPPAKLQPR; listed as Homo sapiens) [des Gln-14 ghrelin] | – | – | – | – | – | – | – | – | – | – | induces GH secretion with similar potency as Ghrelin-28 | elicits Ca^2+ fluxes in cloned cells |
